Read-outs that look alike come from different tables or passages of the source.
How the values were obtained:
SARS-CoV-2 main protease = format: biochemical; settings: Docking validation set, class assigned from COVID Moonshot IC50
[1] = system: SARS, SARS-CoV-2 and MERS Mpro; settings: cited from earlier work
Mpro = settings: ML dataset, cited from earlier work
[2] = Origin COVID_Moonshot, ref COVID Moonshot

Compound	IC50 [1, 2]	IC50 (Mpro; [2])	further results
Cn1ccc(C(=O)NC[C@@H]2CCCO2)n1 [AAR-POS-0daf6b7e-23, Cn1ccc(C(=O)NC[C@@H]2CCCO2)n1]	–	–	label (active / inactive) (SARS-CoV-2 main protease): inactive
Cc1ccncc1CC(=O)Nc1cccc2c1CNCC2 [ADA-UCB-6c2cb422-3, Cc1ccncc1CC(=O)Nc1cccc2c1CNCC2]	–	–	label (active / inactive) (SARS-CoV-2 main protease): inactive
CN(C)c1ccc(N(Cc2cccc(Cl)c2)C(=O)Cn2nnc3ccccc32)cc1 [ALP-POS-6d04362c-2, CN(C)c(cc1)ccc1N(Cc1cccc(Cl)c1)C(Cn1nnc2c1cccc2)=O, reference compound]	0.497 µM	0.444 µM	–
O=C(Nc1cncc2ccccc12)C1CCCc2ccc(Cl)cc21 (centres unmarked) [ALP-POS-477dc5b7-1, O=C(C(CCC1)c2c1ccc(Cl)c2)Nc1cncc2ccccc12, reference compound]	0.324 µM	0.307 µM	–
O=C1N(Cc2cccc(Cl)c2)CCN1c1nccc2[nH]ncc12 [ALP-POS-91609ae9-3, O=C(N(Cc1cccc(Cl)c1)CC1)N1c1nccc2c1cn[nH]2, reference compound]	4.56 µM	3.73 µM	–
NCc1cn(CC(=O)N(CC(=O)N2CCNCC2)c2ccc(-c3ccccc3)cc2)nn1 [ALP-POS-c0c213c9-7, NCc1cn(CC(=O)N(CC(=O)N2CCNCC2)c2ccc(-c3ccccc3)cc2)nn1]	–	–	label (active / inactive) (SARS-CoV-2 main protease): inactive
Cn1ccc(CN(C(=O)Cc2cccnc2)c2ccc(-c3ccccn3)cc2)n1 [ALP-POS-c0c213c9-14, Cn1ccc(CN(C(=O)Cc2cccnc2)c2ccc(-c3ccccn3)cc2)n1]	–	–	label (active / inactive) (SARS-CoV-2 main protease): inactive
O=C(Cn1nnc2ccccc21)N(Cc1ccccn1)c1ccc(-n2cnnc2)cc1 [ALP-POS-c0c213c9-18, O=C(Cn1nnc2ccccc21)N(Cc1ccccn1)c1ccc(-n2cnnc2)cc1]	–	–	label (active / inactive) (SARS-CoV-2 main protease): inactive
Cc1ccn2c(-c3ccc4[nH]ncc4c3)c(-c3ccc(F)cc3)nc2c1 [ALV-UNI-7ff1a6f9-14, Cc1ccn2c(-c3ccc4[nH]ncc4c3)c(-c3ccc(F)cc3)nc2c1]	–	–	label (active / inactive) (SARS-CoV-2 main protease): inactive
CC(=O)N1CCN(CC(=O)Nc2cnccc2C)CC1 [BEN-DND-93268d01-8, CC(=O)N1CCN(CC(=O)Nc2cnccc2C)CC1]	–	–	label (active / inactive) (SARS-CoV-2 main protease): inactive
O=C(Nc1nncn1C1CC1)C1CCOc2c(F)cccc21 (centres unmarked) [BRU-THA-a358fbdd-7, O=C(Nc1nncn1C1CC1)C1CCOc2c(F)cccc21]	–	–	label (active / inactive) (SARS-CoV-2 main protease): inactive
CC(C)Nc1cccnc1N1CCN(C(=O)c2cc3cc(NS(C)(=O)=O)ccc3[nH]2)CC1 [CHEMBL929, CC(C)Nc1cccnc1N(CC1)CCN1C(c1cc(cc(cc2)NS(C)(=O)=O)c2[nH]1)=O, reference compound]	–	–	IC50 ([1]; Origin ChEMBL, ref ChEMBL): 3.99 µM; IC50 (Mpro; Origin ChEMBL, ref ChEMBL): 3.99 µM
Cc1c(-c2cnccn2)ssc1=S [CHEMBL178459, CC1=C(c2nccnc2)SSC1=S, reference compound]	–	–	IC50 ([1]; Origin ChEMBL, ref ChEMBL): 0.415 µM; IC50 (Mpro; Origin ChEMBL, ref ChEMBL): 0.415 µM
COc1nc2ccc(Br)cc2cc1[C@@H](c1ccccc1)[C@@](O)(CCN(C)C)c1cccc2ccccc12 [CHEMBL376488, CN(C)CC[C@]([C@H](c1ccccc1)c(cc(cc(cc1)Br)c1n1)c1OC)(c1cccc2ccccc12)O, reference compound]	–	–	IC50 ([1]; Origin ChEMBL, ref ChEMBL): 4.36 µM; IC50 (Mpro; Origin ChEMBL, ref ChEMBL): 4.36 µM
CC(CN1CC(=O)NC(=O)C1)N1CC(=O)NC(=O)C1 (centres unmarked) [CHEMBL444186, CC(CN(CC(N1)=O)CC1=O)N(CC(N1)=O)CC1=O, reference compound]	–	–	IC50 ([1]; Origin ChEMBL, ref ChEMBL): 3.19 µM; IC50 (Mpro; Origin ChEMBL, ref ChEMBL): 3.19 µM
Nc1ccc(O)c2ncccc12 [CHEMBL449298, Nc(c1cccnc11)ccc1O, reference compound]	–	–	IC50 ([1]; Origin ChEMBL, ref ChEMBL): 2.05 µM; IC50 (Mpro; Origin ChEMBL, ref ChEMBL): 2.05 µM
CN1CC[C@@]2(C)c3cc(O)ccc3N(C)[C@@H]12 [CHEMBL1256915, C[C@]12c(cc(cc3)O)c3N(C)[C@H]1N(C)CC2, reference compound]	–	–	IC50 ([1]; Origin ChEMBL, ref ChEMBL): 1.99 µM; IC50 (Mpro; Origin ChEMBL, ref ChEMBL): 1.99 µM
COc1cc(C(=S)N2CCOCC2)ccc1O [CHEMBL1380480, COc(cc(cc1)C(N2CCOCC2)=S)c1O, reference compound]	–	–	IC50 ([1]; Origin ChEMBL, ref ChEMBL): 1.32 µM; IC50 (Mpro; Origin ChEMBL, ref ChEMBL): 1.32 µM
c1ccc2sc(SNC3CCCCC3)nc2c1 [CHEMBL1591074, C(CC1)CCC1NSc1nc(cccc2)c2s1, reference compound]	–	–	IC50 ([1]; Origin ChEMBL, ref ChEMBL): 0.77 µM; IC50 (Mpro; Origin ChEMBL, ref ChEMBL): 0.77 µM
CC(C)c1cc(CNc2nc(Nc3cc(C4CC4)[nH]n3)cc(N3CCN(C)CC3)n2)on1 [CHEMBL3545085, CC(C)c1noc(CNc2nc(N3CCN(C)CC3)cc(Nc3n[nH]c(C4CC4)c3)n2)c1, reference compound]	–	–	IC50 ([1]; Origin ChEMBL, ref ChEMBL): 1.49 µM; IC50 (Mpro; Origin ChEMBL, ref ChEMBL): 1.49 µM
O=c1sn(-c2cccc3ccccc23)c(=O)n1Cc1ccccc1 [CHEMBL3545157, O=C(N1Cc2ccccc2)N(c2cccc3ccccc23)SC1=O, reference compound]	–	–	IC50 ([1]; Origin ChEMBL, ref ChEMBL): 0.115 µM; IC50 (Mpro; Origin ChEMBL, ref ChEMBL): 0.115 µM
Cc1ccc(N(Cc2cccc(Cl)c2)C(=O)Cn2nnc3ccccc32)cc1 [CHO-MSK-00c5269a-1, Cc(cc1)ccc1N(Cc1cccc(Cl)c1)C(Cn1nnc2c1cccc2)=O, reference compound]	2.33 µM	2.82 µM	–

Compound	IC50 [1, 2]	IC50 (Mpro; [2])	further results
O=C(COc1ccccc1F)Nc1ncnc2[nH]cnc12 [COM-UCB-8c7d23dc-1, O=C(COc1ccccc1F)Nc1ncnc2[nH]cnc12]	–	–	label (active / inactive) (SARS-CoV-2 main protease): inactive
O=C(Nc1cncc2ccccc12)N(CCC1CCCCC1)c1cccc(Cl)c1 [EDJ-MED-c314995a-1, O=C(Nc1cncc2ccccc12)N(CCC1CCCCC1)c1cccc(Cl)c1, reference compound]	0.261 µM	0.621 µM	–
C[C@@H]1C[C@@H](C(=O)Nc2cncc3ccccc23)c2cc(Cl)ccc2O1 [EDJ-MED-e4b030d8-2, C[C@H](C[C@H]1C(Nc2cncc3ccccc23)=O)Oc(cc2)c1cc2Cl, reference compound]	0.231 µM	0.378 µM	–
COC(=O)c1c(C)n(S(C)(=O)=O)c2ccc(N(C(=O)c3ccco3)S(C)(=O)=O)cc12 [LON-WEI-4d77710c-11, Cc1c(C(OC)=O)c(cc(cc2)N(C(c3ccco3)=O)S(C)(=O)=O)c2n1S(C)(=O)=O, reference compound]	0.935 µM	0.635 µM	–
O=C(O)[C@@H](c1ccccc1)N1Cc2ccccc2C1=O [LON-WEI-4d77710c-19, OC([C@@H](c1ccccc1)N(Cc1c2cccc1)C2=O)=O, reference compound]	1.78 µM	1.47 µM	–
CCOC(=O)c1cc(-c2ccccc2)sc1NC(=O)Cc1csc(-c2ccccc2)n1 [LON-WEI-4d77710c-24, CCOC(c1c(NC(Cc2csc(-c3ccccc3)n2)=O)sc(-c2ccccc2)c1)=O, reference compound]	4.66 µM	3.67 µM	–
N#Cc1ccc(CN2CCC(C3CCNC3)CC2)cc1 (centres unmarked) [LON-WEI-4d77710c-32, N#Cc1ccc(CN(CC2)CCC2C2CNCC2)cc1, reference compound]	2.06 µM	1.71 µM	–
Cc1cc(C)c(C#N)c(Sc2ncnc3c2nnn3Cc2ccccc2)n1 [LON-WEI-4d77710c-73, Cc(cc(C)nc1Sc2ncnc3c2nnn3Cc2ccccc2)c1C#N, reference compound]	0.649 µM	0.452 µM	–
COc1cccc2[nH]c(=O)cc(C(=O)N3CCN(c4cccc(Cl)c4)CC3)c12 [MAT-POS-3b536971-2, COc(cccc1N2)c1C(C(N(CC1)CCN1c1cccc(Cl)c1)=O)=CC2=O, reference compound]	4.68 µM	3.26 µM	–
C[C@@H]1C[C@H](C(=O)Nc2cncc3ccccc23)c2cc(Cl)ccc2O1 [MAT-POS-8a69d52e-2, C[C@H](C[C@@H]1C(Nc2cncc3ccccc23)=O)Oc(cc2)c1cc2Cl, reference compound]	0.679 µM	1.67 µM	–
O=C(Cc1cc(Cl)cc(Oc2cccnc2)c1)Nc1cncc2ccccc12 [MAT-POS-9ff17035-3, O=C(Cc1cc(Cl)cc(Oc2cnccc2)c1)Nc1cncc2ccccc12, reference compound]	1.34 µM	1.41 µM	–
O=C(c1cncc2ccccc12)N1CCN(c2cccc(Cl)c2)CC1 [MAT-POS-54c4bf04-3, O=C(c1cncc2ccccc12)N(CC1)CCN1c1cccc(Cl)c1, reference compound]	1.6 µM	1.22 µM	–
O=C(Cc1cncc2ccccc12)N(CCC1CCCCC1)c1cccc(Cl)c1 [MAT-POS-173a45da-1, O=C(Cc1cncc2ccccc12)N(CCC1CCCCC1)c1cccc(Cl)c1, reference compound]	2.11 µM	1.57 µM	–
O=c1oc(Nc2ccccc2)nc2ccccc12 [MAT-POS-ea426761-13, O=C1OC(Nc2ccccc2)=Nc2c1cccc2, reference compound]	1.57 µM	0.966 µM	–
CC(C)(C)c1ccc(N(C(=O)c2c[nH]cn2)C(C(=O)NCCc2cccc(F)c2)c2cccnc2)cc1 (centres unmarked) [MAT-POS-f2460aef-3, CC(C)(C)c(cc1)ccc1N(C(C(NCCc1cccc(F)c1)=O)c1cnccc1)C(c1c[nH]cn1)=O, reference compound]	0.292 µM	0.671 µM	–
CC(C)(C)c1ccc(N(C(=O)c2ccc(Cl)o2)C(C(=O)NCCc2cccc(F)c2)c2cccnc2)cc1 (centres unmarked) [MAT-POS-f2460aef-4, CC(C)(C)c(cc1)ccc1N(C(C(NCCc1cc(F)ccc1)=O)c1cnccc1)C(c(o1)ccc1Cl)=O, reference compound]	0.315 µM	0.415 µM	–
Cc1cccc(C2CN(C(=O)CCl)Cc3ccccc32)c1 (centres unmarked) [NIR-THE-c331be7a-6, Cc1cccc(C(CN(C2)C(CCl)=O)c3c2cccc3)c1]	2 µM	–	–
O=C(CCl)N1CCN(Cc2cc(Cl)cc(Cl)c2)CC1 [PAU-UNI-8cdd41c7-1, O=C(CCl)N1CCN(Cc2cc(Cl)cc(Cl)c2)CC1]	1.89 µM	–	–
O=C(CCl)N1CCN(C(c2ccccc2)c2ccccc2)CC1 [SIM-SYN-f15aaa3a-1, O=C(CCl)N(CC1)CCN1C(c1ccccc1)c1ccccc1]	1.98 µM	–	–
Cc1cc(C(=O)CCl)c(C)n1CC1COc2ccccc2O1 (centres unmarked) [TAT-ENA-80bfd3e5-32, Cc1cc(C(CCl)=O)c(C)n1CC1Oc(cccc2)c2OC1]	2.82 µM	–	–
Cc1ccncc1NC(=O)Cc1cc(Cl)cc(OC2CC(=O)N2)c1 (centres unmarked) [TRY-UNI-2eddb1ff-7, Cc(ccnc1)c1NC(Cc1cc(Cl)cc(OC(C2)NC2=O)c1)=O]	3.61 µM	–	–
O=C1OC(c2cccs2)=N/C1=C\c1ccc(N2CCOCC2)s1 [MAT-POS-fa06b69f-6]	0.696 µM	0.701 µM	–
